Measured values: publication PMC5155016 (Nature chemical biology, 2015)
Residue numbers refer to the chain shown, from its start. In names and notes the source's numbering stands. Each block holds one molecule with its values, some of them ahead of it.

Key:
[1] = target: R132C IDH1 mutant HT-1080 cells (Homo sapiens, UniProt O75874, R132C); experiment: Quantification of intracellular 2-HG in HT-1080 cells; type: cell-based
[2] = Pharmacokinetic analysis in mouse; type: in vivo; conditions: CD-1 mice, IP, 213 mg/kg, up to 24 hours
[3] = test system: primary IDH1-mutant human AML cells in NSG mice; experiment: Xenotransplantation of primary IDH1 mutant AML cells in NSG mice; type: in vivo
[4] = test system: IDH2 R172 U87MG; experiment: IDH2 cellular 2-HG assay in R172 U87MG cells; type: cell-based; conditions: read-out: IDH2 IC50 R172 U87MG
[5] = target: T1, IDH2 SW1353 cell 2-HG (Homo sapiens, UniProt P48735, R172S); experiment: IDH2 cellular 2-HG assay in SW1353 cells; type: cell-based; conditions: read-out: IDH2 IC50 SW1353 cell 2-HG
T1 sequence (P48735 40-452 R172S): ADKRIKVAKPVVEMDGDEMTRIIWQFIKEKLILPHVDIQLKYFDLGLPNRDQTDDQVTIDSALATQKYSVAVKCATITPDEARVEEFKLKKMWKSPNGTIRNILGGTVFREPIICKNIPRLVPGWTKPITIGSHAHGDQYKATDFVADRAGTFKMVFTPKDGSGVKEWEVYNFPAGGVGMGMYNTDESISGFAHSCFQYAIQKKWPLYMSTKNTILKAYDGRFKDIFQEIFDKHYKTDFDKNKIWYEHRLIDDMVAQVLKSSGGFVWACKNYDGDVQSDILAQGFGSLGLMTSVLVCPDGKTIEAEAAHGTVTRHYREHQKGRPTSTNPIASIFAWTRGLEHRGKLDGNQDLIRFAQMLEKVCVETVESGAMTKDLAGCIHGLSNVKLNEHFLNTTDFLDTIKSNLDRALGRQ

[6] = target: homodimeric R132H IDH1 (Homo sapiens, UniProt O75874, R132H); experiment: Biochemical mechanism of inhibition analysis; conditions: by analogy with close analog
Sequence of homodimeric R132H IDH1 (O75874 whole entry R132H): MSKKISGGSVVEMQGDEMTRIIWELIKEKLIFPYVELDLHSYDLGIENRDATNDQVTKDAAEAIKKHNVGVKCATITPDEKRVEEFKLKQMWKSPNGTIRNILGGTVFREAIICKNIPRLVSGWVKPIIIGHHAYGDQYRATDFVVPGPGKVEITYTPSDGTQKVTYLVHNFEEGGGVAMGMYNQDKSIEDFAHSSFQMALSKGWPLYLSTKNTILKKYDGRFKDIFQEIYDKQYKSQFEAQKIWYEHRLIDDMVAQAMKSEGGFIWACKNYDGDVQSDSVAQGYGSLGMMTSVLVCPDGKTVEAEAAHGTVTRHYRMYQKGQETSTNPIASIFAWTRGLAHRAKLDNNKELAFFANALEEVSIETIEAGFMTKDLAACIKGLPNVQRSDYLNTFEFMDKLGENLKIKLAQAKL

[7] = test system: H3K9me2 in R132C IDH1 expressing HT-1080 cells; experiment: Western blot of histone H3K9me2 in HT-1080 cells; type: cell-based, human; conditions: 48 hours of treatment
[8] = Stability of compounds in media; type: physicochemical
[9] = test system: R132G IDH1 AML cells; experiment: Intracellular 2-HG in primary R132G IDH1 AML cells ex vivo; type: cell-based, human; conditions: 1.7 μM
[10] = test system: R132G IDH1 AML cells; experiment: Cell cycle analysis; type: cell-based, human; conditions: 3 μM, 7 days
[11] = test system: R132C IDH1 AML cells; experiment: Cell cycle analysis; type: cell-based, human; conditions: 3 μM, 7 days
[12] = test system: R132G IDH1 AML cells; experiment: Blast and G/M cell fractions by CD45/SSC flow cytometry; type: cell-based, human; conditions: 3 μM, 7 days
[13] = test system: leukemic blasts; experiment: Leukemic blast analysis including HLA-DR and c-Kit markers; type: cell-based, human
[14] = test system: R132G IDH1 mutant AML cells; experiment: DNA methylation profiling by ERRBS; type: cell-based, human; conditions: q-value < 0.001, methylation difference ≥ 25%
[15] = PAMPA, pH 7.4
[16] = target: the molecule itself; experiment: SEC

Sequence of R132C IDH1 mutant HT-1080 cells (O75874 whole entry R132C): as the sequence (O75874 whole entry R132H) above, with H132C counted along it
Sequence of R132C IDH1 mutant HT-1080 cells (O75874 whole entry partner): as the sequence (O75874 whole entry R132H) above, with H132R counted along it

EC50 [1]: 0.32 µM
Molecule: COc1c(C)cc(NC(=O)c2nn(Cc3ccc(F)cc3)c3c2CN(C(=O)c2ccc[nH]2)C[C@]3(C)C(N)=O)cc1C [GSK864]
Blood concentrations after intraperitoneal administration [2]: significant concentrations of GSK864 were maintained
Percentage of blast cells (SSClow CD45low/+) in bone marrow ([3]; NSG mice, 150 mg/kg): significant decrease in the percentage of blast cells
huCD45+ CD38+ cells in bone marrow ([3]; R132C or R132H IDH1 mutant engrafted NSG mice, 150 mg/kg): slightly increased numbers of huCD45^+ CD38^+ cells

IC50 [4]: 7.94 µM
IC50 [5]: 4.69 µM
Mechanism of action versus NADPH [6]: mixed vs NADPH
Mechanism of action versus αKG [6]: competitive vs αKG
Stability in media [8]: at least 14 days
AMP (artificial membrane permeability) [15]: 32.4 ×10⁻⁶ cm/s
AMP permeability class [15]: high
Molecule: C[C@H](O)c1cccc(NC(=O)c2nn(Cc3ccc(F)cc3)c3c2CN(C(=O)c2ccc[nH]2)C[C@H]3C)c1 [GSK321, (7R)-1-[(4-fluorophenyl)methyl]-N-{3-[(1S)-1-hydroxyethyl]phenyl}-7-methyl-5-(1H-pyrrol-2-ylcarbonyl)-4,5,6,7-tetrahydro-1H-pyrazolo[4,3c]pyridine-3-carboxamide]
Effect on histone H3K9me2 levels [7]: markedly decreased H3K9me2 levels
Inhibition of intracellular 2-HG [9]: 78%
Cells in G1-phase, R132G IDH1 [10]: 57.9 ± 6.9%
Quiescent (G0)-phase cells, R132G IDH1 [10]: 36.7 ± 4.4%
Cells in G1-phase, R132C IDH1 [11]: 66.8 ± 12.0%
Quiescent (G0)-phase cells, R132C IDH1 [11]: 24.0 ± 11.8%
Fraction of leukemic blast cells (CD45low/+ SSClow) in comparison to DMSO [12]: 0.7 ± 0.1 fold
Leukemic blasts, analysis including HLA-DR and c-Kit markers [13]: 0.4 ± 0.2 fold
Hypermethylated CpG loci ([14]; 3 μM, 6 days, vs controls): 10153
Hypomethylated CpG loci ([14]; 3 μM, 6 days, vs controls): 18668
Hypermethylated regions (DMRs) ([14]; 1kb tiles): 1157
Hypomethylated regions (DMRs) ([14]; 1kb tiles): 2075
2HG in IDH1-mutant AML cells of treated mice ([3]; NSG mice): decrease in 2HG

B1: IDH2(40-452)Flag wild type (enzyme, human, UniProt P48735 40-452, looked up)
chain: T1 sequence (P48735 40-452 R172S) with S133R
binding result [16]: binds

B2: IDH2(40-452)Flag R140Q (enzyme, human, UniProt P48735 40-452, looked up)
chain: T1 sequence (P48735 40-452 R172S) with R101Q, S133R
binding result [16]: binds

B3: IDH2(40-452)Flag R172S (enzyme, human, UniProt P48735 40-452, looked up)
chain: T1 sequence (P48735 40-452 R172S)
binding result [16]: binds
